In BindingDB's records for patent US20240109900 (IRBM, 2024):
pIC50: −log10 of the molar value.

Target: T1, Tyrosine-protein phosphatase non-receptor type 11 (Homo sapiens, UniProt Q06124)
T1 sequence (Q06124 whole entry): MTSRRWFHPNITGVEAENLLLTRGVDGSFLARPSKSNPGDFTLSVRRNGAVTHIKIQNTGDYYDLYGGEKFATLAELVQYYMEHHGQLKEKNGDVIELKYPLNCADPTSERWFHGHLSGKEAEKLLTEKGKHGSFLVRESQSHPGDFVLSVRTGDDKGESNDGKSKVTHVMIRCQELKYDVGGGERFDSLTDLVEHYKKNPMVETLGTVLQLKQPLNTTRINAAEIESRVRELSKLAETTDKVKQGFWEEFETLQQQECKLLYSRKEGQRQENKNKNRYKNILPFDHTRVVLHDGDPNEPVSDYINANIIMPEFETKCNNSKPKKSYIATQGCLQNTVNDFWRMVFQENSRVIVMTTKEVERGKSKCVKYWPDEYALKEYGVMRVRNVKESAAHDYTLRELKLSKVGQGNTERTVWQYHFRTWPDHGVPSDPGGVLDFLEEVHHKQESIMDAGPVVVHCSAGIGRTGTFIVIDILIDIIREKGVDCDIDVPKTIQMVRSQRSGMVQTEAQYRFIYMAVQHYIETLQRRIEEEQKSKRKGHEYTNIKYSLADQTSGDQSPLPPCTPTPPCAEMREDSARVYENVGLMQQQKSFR
Experiment: SHP2 Inhibition Enzymatic Assay
Procedure: Assay volume of 20 μL/well was assembled in 384 well black polystyrene low-binding microplates (Greiner), using the following buffer: 60 mM HEPES pH 7.2, 75 mM NaCl, 75 mM KCl, 1 mM EDTA pH 8, 0.05% tween-20, 5 mM DTT. The SHP-2 enzyme (synthetized by Origene, Met1-Leu525, cat #TP750155) was used at a final concentration of 0.5 nM. […] SHP2 was then added together with the IRS1 peptide. 30 min post incubation, the DiFMUP substrate was added to the reaction and incubated 30 min at room temperature. […] The fluorescence was detected by a microplate reader (Envision, PerkinElmer) according to the DiFMUP excitation and emission wavelength. The lower the fluorescence the higher the SHP2 inhibition. […] The percentage inhibition is fitted against the compound dilutions with a four-parameter logistic regression.

Row | Compound | pIC50
1 | NCC1(c2ccccc2F)C2CCN(c3cc4nc(Sc5ccnc(N)c5Cl)cnc4[nH]3)CC21 (centres undefined) [US20240109900, Example 59] | > 6.30
2 | Cc1cc(C(N)=O)ncc1-c1n[nH]c2nc(N3CC[C@@H]4[C@H](C3)[C@@]4(CN)c3ccccc3F)cnc12 [US20240109900, Example 307] | > 6.30
3 | Cc1c(-c2n[nH]c3nc(N4CC[C@@H]5[C@H](C4)[C@@]5(CN)c4cc(F)cc(F)c4)cnc23)ccc2nn(C)cc12 [US20240109900, Example 308] | > 6.30
4 | N#CNC(=O)c1ccc(-c2n[nH]c3nc(N4CC[C@@H]5[C@H](C4)[C@@]5(CN)c4ccccc4F)cnc23)c(Cl)c1 [US20240109900, Example 310] | > 6.30
5 | NC[C@]1(c2ccccc2F)[C@@H]2CCN(c3cnc4c(-c5ccc(-c6cc(F)c(O)c(F)c6)cc5Cl)n[nH]c4n3)C[C@@H]21 [US20240109900, Example 313] | > 6.30
6 | NC[C@]1(c2ccccc2F)[C@@H]2CCN(c3cnc4c(-c5ccc(F)c6c(=O)[nH]ccc56)n[nH]c4n3)C[C@@H]21 [US20240109900, Example 314] | > 6.30
7 | Cc1c(-c2n[nH]c3nc(N4CC[C@@H]5[C@H](C4)[C@@]5(CN)c4ccccc4F)cnc23)ccc2c1ncn2C [US20240109900, Example 318] | > 6.30
8 | NC[C@]1(c2ccccc2F)[C@@H]2CCN(c3cnc4c(-c5ccc6c(N)nccc6c5)n[nH]c4n3)C[C@@H]21 [US20240109900, Example 319] | > 6.30
9 | CN1CCOc2ccc(-c3n[nH]c4nc(N5CC[C@@H]6[C@H](C5)[C@@]6(CN)c5ccccc5F)cnc34)c(Cl)c21 [US20240109900, Example 321] | > 6.30
10 | NC[C@]1(c2ccccc2F)[C@@H]2CCN(c3cnc4c(-c5ccc(CC(N)=O)cc5Cl)n[nH]c4n3)C[C@@H]21 [US20240109900, Example 328] | > 6.30
11 | NC[C@]1(c2ccccc2F)[C@@H]2CCN(c3nc4nc(Sc5ccnc(-n6cccn6)c5Cl)cnc4[nH]3)C[C@@H]21 [US20240109900, Example 342] | > 6.30
12 | COc1nccc2cc(-c3n[nH]c4nc(N5CC[C@@H]6[C@H](C5)[C@@]6(CN)c5ccccc5F)cnc34)ccc12 [US20240109900, Example 352] | > 6.30
13 | Cc1nc2ccc(-c3n[nH]c4nc(N5CC[C@@H]6[C@H](C5)[C@@]6(CN)c5ccccc5F)cnc34)c(Cl)c2n1C [US20240109900, Example 358] | > 6.30
14 | NC[C@]1(c2ccccc2F)[C@@H]2CCN(c3cnc4c(-c5ccc6nn(CCO)cc6c5Cl)n[nH]c4n3)C[C@@H]21 [US20240109900, Example 365] | > 6.30
15 | CC(C)(C)C#Cc1n[nH]c2nc(N3CC[C@@H]4[C@H](C3)[C@@]4(CN)c3ccccc3F)cnc12 [US20240109900, Example 366] | > 6.30
16 | NC[C@]1(c2ccccc2F)[C@@H]2CCN(c3cnc4c(-c5ccc(-c6nsc(O)n6)cc5Cl)n[nH]c4n3)C[C@@H]21 [US20240109900, Example 379] | > 6.30
17 | NC[C@]1(c2ccsn2)[C@@H]2CN(c3cnc4c(-c5ccc6nn(C(F)F)cc6c5Cl)n[nH]c4n3)C[C@@H]21 [US20240109900, Example 468] | > 6.30
18 | Cc1csc([C@@]2(CN)[C@@H]3CN(c4cnc5c(-c6ccnc(C)c6F)n[nH]c5n4)C[C@@H]32)n1 [US20240109900, Example 477] | > 6.30
19 | Cc1csc([C@@]2(CN)[C@@H]3CCN(c4cnc5c(-c6ccc(F)c7ncccc67)c[nH]c5n4)C[C@@H]32)n1 [US20240109900, Example 502] | > 6.30
20 | Cc1csc([C@@]2(CN)[C@@H]3CN(c4cnc5c(-c6ccc7c(c6)CC(=O)N7C)n[nH]c5n4)C[C@@H]32)n1 [US20240109900, Example 513] | > 6.30
21 | Cc1csc([C@@]2(CN)[C@@H]3CN(c4cnc5c(-c6ccnc(-n7cccn7)c6Cl)n[nH]c5n4)C[C@@H]32)n1 [US20240109900, Example 516] | > 6.30
22 | Cc1csc([C@@]2(CN)[C@@H]3CN(c4cnc(Sc5ccnc(-n6cccn6)c5Cl)cn4)C[C@@H]32)n1 [US20240109900, Example 520] | > 6.30
23 | Cc1csc([C@@]2(CN)[C@@H]3CN(c4nc(C)n(-c5cccc(Cl)c5Cl)c(=O)c4Cl)C[C@@H]32)n1 [US20240109900, Example 526] | > 6.30
24 | NC[C@]1(c2cc(F)ccc2F)[C@@H]2CCN(c3cnc4c(-c5cccc6c5CCC(=O)N6)n[nH]c4n3)C[C@@H]21 [US20240109900, Example 531] | > 6.30
